One may read the inhibition as the change of the read-out against control, counted positive when it falls. Low readings indicate a weak effect, high ones a strong effect. What is called IC50 is the concentration that gives 50% inhibition.

Test [1] has as its target Neuraminidase (Influenza A virus) (UniProt A5Z252). To be noted: Influenza A virus (A/Anhui/1/2005(H5N1)); at 10 µM.
For test [2] the target is unchanged. The conditions noted are these: Influenza A virus (A/Anhui/1/2005(H5N1)); at 100 µM.
For test [3], the target named is Neuraminidase (Influenza A virus, UniProt A5Z252). Nature of the test: Inhibition of Influenza A virus A/Anhui/1/2005(H5N1) neuraminidase using MUNANA as substrate preincubated for 5 to 15 mins followed by substrate addition measured after 30 mins by fluorescence assay.
The target of test [4] is T1, Neuraminidase (Influenza A virus, UniProt B4URF0). Nature of the test: Inhibition of Influenza A virus A/California/04/2009(H1N1) neuraminidase using MUNANA as substrate preincubated for 5 to 15 mins followed by substrate addition measured after 30 mins by fluorescence assay.
T1 sequence (B4URF0 whole entry): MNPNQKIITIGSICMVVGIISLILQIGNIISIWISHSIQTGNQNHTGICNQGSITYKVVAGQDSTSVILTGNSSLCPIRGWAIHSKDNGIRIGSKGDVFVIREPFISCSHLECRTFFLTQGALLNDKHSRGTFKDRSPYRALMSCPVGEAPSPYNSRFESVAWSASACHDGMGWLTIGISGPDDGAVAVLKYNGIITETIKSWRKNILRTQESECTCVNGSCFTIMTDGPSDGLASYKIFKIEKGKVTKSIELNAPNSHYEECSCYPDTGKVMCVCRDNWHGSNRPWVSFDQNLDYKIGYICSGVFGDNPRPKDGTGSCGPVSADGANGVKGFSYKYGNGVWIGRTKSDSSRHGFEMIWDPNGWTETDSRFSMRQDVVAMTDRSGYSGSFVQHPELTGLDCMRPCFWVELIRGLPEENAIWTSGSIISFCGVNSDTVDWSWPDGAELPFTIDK
Test [5] has as its target T1, Neuraminidase. Nature of the test: Inhibition of Influenza A virus A/Anhui/1/2013(H7N9) neuraminidase 150 cavity at 10 uM using MUNANA as substrate preincubated for 5 to 15 mins followed by substrate addition measured after 30 mins by fluorescence assay relative to control.

Molecules are shown by their SMILES.

Regarding `CCC(CC)O[C@@H]1C=C(C(=O)O)C[C@H](NC(=O)[C@H](O)CCc2ccccc2)[C@H]1NC(C)=O`, the inhibition in test [1] came out at 49.2%; in test [2] it was 60.4%.
As for `CCCC(=O)N[C@H]1CC(C(=O)O)=C[C@@H](OC(CC)CC)[C@@H]1NC(C)=O`, the values for the inhibition in test [1] and in test [2] were 14.7% and 66.8%, respectively.
Consider `CCC(CC)O[C@@H]1C=C(C(=O)O)C[C@H](NC(=O)Cc2ccc(C)cc2)[C@H]1NC(C)=O`, for which the inhibition was found to be 10% in test [1] and 57.2% in test [2].
Take `CCC(CC)O[C@@H]1C=C(C(=O)O)C[C@H](NC=O)[C@H]1NC(C)=O`: 1290 nM corresponded to half-maximal inhibition at Neuraminidase [3] (IC50).
Take `CCC(CC)O[C@@H]1C=C(C(=O)O)C[C@H](NC(C)=O)[C@H]1NC(C)=O`: the IC50 at Neuraminidase [3] came to 238 nM; against Neuraminidase [4], 16.5 nM; on Neuraminidase [5], 59.5 nM.
Compound `CCC(CC)O[C@@H]1C=C(C(=O)O)C[C@H](NC(=O)C(F)F)[C@H]1NC(C)=O` yielded an IC50 on Neuraminidase [3] of 190 nM.
With `CCC(CC)O[C@@H]1C=C(C(=O)O)C[C@H](NC(=O)CN)[C@H]1NC(C)=O`, 2670 nM corresponded to half-maximal inhibition on Neuraminidase [3] (IC50).
With `CCC(CC)O[C@@H]1C=C(C(=O)O)C[C@H](NC(=O)CN(C)C)[C@H]1NC(C)=O`, the inhibition in test [1] stood at 30%; in test [2], 58.2%.
Compound `C=CC(=O)N[C@H]1CC(C(=O)O)=C[C@@H](OC(CC)CC)[C@@H]1NC(C)=O` gave a half-inhibitory concentration (IC50) at Neuraminidase [3] of 2980 nM.
Consider `CCC(CC)O[C@@H]1C=C(C(=O)O)C[C@H](NC(=O)Cc2c[nH]c3ccccc23)[C@H]1NC(C)=O`, for which the inhibition in test [1] was found to be 12.8%; in test [2], 47.3%.
The matching figures for `CCOC(=O)C1=C[C@@H](OC(CC)CC)[C@H](NC(C)=O)[C@@H](N)C1`: 91% and 95.5%.
In test [2], `CCC(CC)O[C@@H]1C=C(C(=O)O)C[C@H](NC(=O)CCCc2ccccc2)[C@H]1NC(C)=O` showed an inhibition of 36%.
On the same count and under the same terms, the value for `CCCCC(=O)N[C@H]1CC(C(=O)O)=C[C@@H](OC(CC)CC)[C@@H]1NC(C)=O` was 11.3%.
Consider `CCC(=O)N[C@H]1CC(C(=O)O)=C[C@@H](OC(CC)CC)[C@@H]1NC(C)=O`, for which the results for the inhibition in test [1] and in test [2] were 47.9% and 84.5%, respectively.
The like results for `CCC(CC)O[C@@H]1C=C(C(=O)O)C[C@H](NC(=O)/C=C/c2ccccc2)[C@H]1NC(C)=O` were, in that order, 14.5% and 50.2%.
The compound `CCC(CC)O[C@@H]1C=C(C(=O)O)C[C@H](NC(=O)C(F)(F)F)[C@H]1NC(C)=O` registered an IC50 at Neuraminidase [3] of 266 nM.
At Neuraminidase [3], `CCC(CC)O[C@@H]1C=C(C(=O)O)C[C@H](NC(=O)CF)[C@H]1NC(C)=O` yielded an IC50 of 228 nM.
As for `CCCCCC(=O)N[C@H]1CC(C(=O)O)=C[C@@H](OC(CC)CC)[C@@H]1NC(C)=O`, in test [2], the inhibition was found to be 33.2%.
Consider `CCC(CC)O[C@@H]1C=C(C(=O)O)C[C@H](NC(=O)CCc2ccccc2)[C@H]1NC(C)=O`, for which, in test [2], the inhibition amounted to 19.1%.
In the case of `CCC(CC)O[C@@H]1C=C(C(=O)O)C[C@H](NC(=O)[C@@H](C)N)[C@H]1NC(C)=O`, the figures for the inhibition in test [1] and in test [2] were 18.8% and 49.3%, respectively.
For `CCC(CC)O[C@@H]1C=C(C(=O)O)C[C@H](NC(=O)C(C)C)[C@H]1NC(C)=O`, the inhibition was found to be 14.2% in test [1] and 47.6% in test [2].

Values taken from ChEMBL document CHEMBL4251557 (Eur J Med Chem, 2017).
